According to patent US20230011869A1 (Hoffmann-La Roche Inc., priority 2018, published 2023):
Counter-ions that a name gives are not always drawn.

The compounds below were run on Acinetobacter baumannii ATCC17978 (assay: Antimicrobial susceptibility testing: 90% growth inhibitory concentration (IC90) determination, Iso-Sensitest broth). Conditions: 90% growth inhibitory concentration, Acinetobacter baumannii ATCC17978, Iso-Sensitest broth, OD 600 nm over 16 h; read-out: ATCC17978 IC90.
Assay type: cell-based
Procedure, shortened: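 A. baumannii ATCC17978 grown in Iso-Sensitest broth across 10 compound concentrations at 35±2 °C.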

Point of comparison: `Cc1cc(Nc2nccn3c(-c4ccc(OC(F)F)cc4)cnc23)ccc1C(=O)N1CCC(C(=O)N2CC3(C2)CN(C2CC2)C3)CC1` [Example 44, (4-(6-cyclopropyl-2,6-diazaspiro[3.3]heptane-2-carbonyl)piperidin-1-yl)(4-((3-(4-(difluoromethoxy)phenyl)imidazo[1,2-a]pyrazin-8-yl)amino)-2-methylphenyl)methanone], IC90 280 nM. Against it:
- Cc1cc(Nc2nccn3c(-c4ccc(OCC#CCO)c(F)c4)cnc23)ccc1C(=O)N1CCC(CCN)CC1 [Example 246, [4-(2-aminoethyl)-1-piperidyl]-[4-[[3-[3-fluoro-4-(4-hydroxybut-2-ynoxy)phenyl]imidazo[1,2-a]pyrazin-8-yl]amino]-2-methyl-phenyl]methanone] — 3-fold lower, 92 nM
- Cc1cc(Nc2nccn3c(-c4ccc(OC(F)F)cc4)cnc23)ccc1C(=O)N1CCC(N2CCNC2=O)CC1 [Example 9, 1-(1-(4-((3-(4-(difluoromethoxy)phenyl)imidazo[1,2-a]pyrazin-8-yl)amino)-2-methylbenzoyl)piperidin-4-yl)imidazolidin-2-one] — within 1.5-fold, 410 nM
- COc1ccc(-c2cnc3c(Nc4ccc(C(=O)N5CCN(C(=O)NC[C@@H](C)N)CC5)c(C)c4)nccn23)c(F)c1F [Example 152, N-[(2R)-2-aminopropyl]-4-[4-[[3-(2,3-difluoro-4-methoxy-phenyl)imidazo[1,2-a]pyrazin-8-yl]amino]-2-methyl-benzoyl]piperazine-1-carboxamide hydrochloride] — 2.5-fold lower, 110 nM
- COc1ccc(-c2cnc3c(Nc4ccc(C(=O)N5CCC(C(=O)N6CCNC(C(=O)O)C6)CC5)c(C)c4)nccn23)cc1F (stereo not shown) [Example 48, 4-[1-[4-[[3-(3-fluoro-4-methoxyphenyl)imidazo[1,2-a]pyrazin-8-yl]amino]-2-methylbenzoyl]piperidine-4-carbonyl]piperazine-2-carboxylic acid;hydrochloride] — 3.3-fold higher, 930 nM
- COc1ccc(-c2cnc3c(Nc4ccc(C(=O)N5CCC(C(=O)NCCn6ccnc6)CC5)c(C)c4)nccn23)cc1F [Example 418, 1-[4-[[3-(3-fluoro-4-methoxyphenyl)imidazo[1,2-a]pyrazin-8-yl]amino]-2-methylbenzoyl]-N-(2-imidazol-1-ylethyl)piperidine-4-carboxamide] — 3.6-fold higher, 1000 nM
- Cc1cc(Nc2nccn3c(-c4ccc(OCC#N)c(F)c4F)cnc23)ccc1C(=O)N1CCN(C(=O)[C@H]2CCNC2)CC1 [Example 201, 2-[2,3-difluoro-4-[8-[3-methyl-4-[4-[(3S)-pyrrolidine-3-carbonyl]piperazine-1-carbonyl]anilino]imidazo[1,2-a]pyrazin-3-yl]phenoxy] acetonitrile; formic acid] — 2.8-fold lower, 100 nM
- COc1ccc(-c2cnc3c(Nc4ccc(C(=O)N5CCN(CCN(C)C)CC5)c(C)c4)nccn23)c(F)c1F [Example 27] — 1.8-fold lower, 160 nM
- Cc1cc(Nc2nccn3c(-c4ccc(OC(F)F)cc4)cnc23)ccc1C(=O)N1CCC(C(=O)N2C[C@H](CO)[C@@H](O)[C@H](O)C2)CC1 [Example 33, (1-(4-((3-(4-(difluoromethoxy)phenyl)imidazo[1,2-a]pyrazin-8-yl)amino)-2-methylbenzoyl)piperidin-4-yl)((3R,4R,5R)-3,4-dihydroxy-5-(hydroxymethyl)piperidin-1-yl)methanone] — within 1.5-fold, 230 nM

Same assay, conditions: Acinetobacter baumannii, ATCC17978, 16 h, read-out: ATCC17978 IC90, 90% growth inhibitory concentration, Acinetobacter baumannii ATCC17978, Iso-Sensitest broth, OD 600 nm over 16 h

Point of comparison: `COC(=O)C[C@H](N)C(=O)N1CCN(C(=O)c2ccc(Nc3nccn4c(-c5ccc(OC(F)F)cc5)cnc34)cc2C)CC1` [Example 514, methyl (3S)-3-amino-4-[4-[4-[[3-[4-(difluoromethoxy)phenyl]imi-dazo[1,2-a]pyrazin-8-yl]amino]-2-methylbenzoyl]piperazin-1-yl]-4-oxobutanoate; hydrochloride], IC90 630 nM. Against it:
- Cc1cc(Nc2nccn3c(-c4ccc(OC(F)F)cc4)cnc23)ccc1C(=O)N1CCC(C(=O)N[C@@H]2[C@@H](O)[C@H](O)[C@@H](CO)O[C@@H]2O)CC1 [Example 350, 1-[4-[[3-[4-(difluoromethoxy)phenyl]imi-dazo[1,2-a]pyrazin-8-yl]amino]-2-methylbenzoyl]-N-[(2S,3R,4R,5S,6R)-2,4,5-trihydroxy-6-(hydroxymethyl)oxan-3-yl]piperidine-4-carboxamide] — within 1.5-fold, 710 nM
- COc1ccc(-c2cnc3c(Nc4ccc(C(=O)N5CCC(C(=O)N6CC[C@@H](N)[C@@H](O)C6)CC5)c(C)c4)nccn23)cc1F [Example 392, [4-[(3S,4R)-4-amino-3-hydroxypiperidine-1-carbonyl]piperidin-1-yl]-[4-[[3-(3-fluoro-4-methoxyphenyl)imidazo[1,2-a]pyrazin-8-yl]amino]-2-methylphenyl]methanone; 2,2,2-trifluoroacetic acid] — 1.9-fold lower, 340 nM
- Cc1cc(Nc2nccn3c(-c4ccc(OC(F)F)cc4)cnc23)ccc1C(=O)N1CCN(C(=O)[C@H]2CC[C@H](C(=O)O)CC2)CC1 [Example 265, 4-[4-[4-[[3-[4-(difluoromethoxy)phenyl]imi-dazo[1,2-a]pyrazin-8-yl]amino]-2-methylbenzoyl]piperazine-1-carbonyl]cyclohexane-1-carboxylic acid] — 1.7-fold higher, 1100 nM
- Cc1cc(Nc2nccn3c(-c4ccc(OC(F)F)cc4)cnc23)ccc1C(=O)N1CCC(C(=O)N2CCOC(CN)C2)CC1 (stereo not shown) [Example 43, (4-(2-(aminomethyl)morpholine-4-carbonyl)piperidin-1-yl)(4-((3-(4-(difluoromethoxy)phenyl)imidazo[1,2-a]pyrazin-8-yl)amino)-2-methylphenyl)methanone hydrochloride] — 2.9-fold lower, 220 nM
- CCN(CC)C(=O)N1CCN(C(=O)c2ccc(Nc3nccn4c(-c5ccc(OC(F)F)cc5)cnc34)cc2C)CC1 [Example 369, 4-[4-[[3-[4-(difluoromethoxy)phenyl]imi-dazo[1,2-a]pyrazin-8-yl]amino]-2-methylbenzoyl]-N,N-diethylpiperazine-1-carboxamide] — within 1.5-fold, 890 nM
- Cc1cc(Nc2nccn3c(-c4ccc(OC(F)F)cc4)cnc23)ccc1C(=O)N1CCC(C(=O)NC[C@@H]2CNC(=O)O2)CC1 [Example 548, (R)-1-(4-((3-(4-(difluoromethoxy)phenyl)imidazo [1,2-a]pyrazin-8-yl)amino)-2-methylbenzoyl)-N-((2-oxooxazolidin-5-yl)methyl)piperidine-4-carboxamide] — 3.1-fold lower, 203 nM
- Cc1cc(Nc2nccn3c(-c4ccc(OC(F)F)cc4)cnc23)ccc1C(=O)N1CCN(C(=O)c2cccc(S(=O)(=O)O)c2)CC1 [Example 276, 3-[4-[4-[[3-[4-(difluoromethoxy)phenyl]imi-dazo[1,2-a]pyrazin-8-yl]amino]-2-methylbenzoyl]piperazine-1-carbonyl]benzenesulfonic acid] — 5.2-fold higher, 3300 nM
- CCc1cc(Nc2nccn3c(-c4ccc(OCC#N)c(F)c4F)cnc23)ccc1C(=O)N1CCC(C(=O)N2CCN[C@@H](CO)C2)CC1 [Example 540, 2-[4-[8-[3-ethyl-4-[4-[(3R)-3-(hydroxymethyl)piperazine-1-carbonyl]piperidine-1-carbonyl]anilino]imidazo[1,2-a]pyrazin-3-yl]-2,3-difluorophenoxy]acetonitrile; 2,2,2-trifluoroacetic acid] — 7-fold lower, 90 nM
- COc1ccc(-c2cnc3c(Nc4ccc(C(=O)N5CCN(C(=O)[C@@H]6C[C@@H](OC(=O)[C@@H](N)CCC(N)=O)CN6)CC5)c(C)c4)nccn23)c(F)c1F [Example 565, [(3R,5S)-5-[4-[4-[[3-(2,3-difluoro-4-methoxy-phenyl)imidazo[1,2-a]pyrazin-8-yl]amino]-2-methyl-benzoyl]piperazine-1-carbonyl]pyrrolidin-3-yl] (2S)-2,5-diamino-5-oxo-pentanoate formate] — 5.8-fold lower, 109 nM
- Cc1cc(Nc2nccn3c(-c4ccc(OC(F)F)cc4)cnc23)ccc1C(=O)N1CCN(C(=O)C2CCNCC2F)CC1 (stereo not shown) [Example 502, [4-[[3-[4-(difluoromethoxy)phenyl]imi-dazo[1,2-a]pyrazin-8-yl]amino]-2-methylphenyl]-[4-(3-fluoropiperidine-4-carbonyl)piperazin-1-yl]methanone; hydrochloride] — within 1.5-fold, 470 nM
- Cc1cc(Nc2nccn3c(-c4ccc(OC(F)F)cc4)cnc23)ccc1C(=O)N1CCN(C(=O)NCCN(C)C)CC1 [Example 520, 4-[4-[[3-[4-(difluoromethoxy)phenyl]imi-dazo[1,2-a]pyrazin-8-yl]amino]-2-methylbenzoyl]-N-[2-(dimethylamino)ethyl]pipera-zine-1-carboxamide] — 2-fold lower, 310 nM
- Cc1cc(Nc2nccn3c(-c4ccc(OC(F)F)cc4)cnc23)ccc1C(=O)N1CCN(C(=O)[C@@H]2CCNC[C@@H]2O)CC1 [Example 516, [4-[[3-[4-(difluoromethoxy)phenyl]imi-dazo[1,2-a]pyrazin-8-yl]amino]-2-methylphenyl]-[4-[(3R,4R)-3-hydroxypiperidine-4-carbonyl]piperazin-1-yl]methanone] — within 1.5-fold, 650 nM
- CCNCC(=O)N1CCN(C(=O)c2ccc(Nc3nccn4c(-c5ccc(OC(F)F)cc5)cnc34)cc2C)CC1 [Example 314, 1-[4-[4-[[3-[4-(difluoromethoxy)phenyl]imi-dazo[1,2-a]pyrazin-8-yl]amino]-2-methylbenzoyl]piperazin-1-yl]-2-(ethylamino)ethanone; hydro-chloride] — 2.7-fold lower, 230 nM
- Cc1cc(Nc2nccn3c(-c4ccc(OC(F)F)cc4)cnc23)ccc1C(=O)N1CCN(C(=O)CN(C)CC(=O)O)CC1 [Example 281, 2-[[2-[4-[4-[[3-[4-(difluoromethoxy)phenyl]imi-dazo[1,2-a]pyrazin-8-yl]amino]-2-methylbenzoyl]piperazin-1-yl]-2-oxoethyl]-methylamino]acetic acid] — 7.5-fold higher, 4700 nM
- Cc1cc(Nc2nccn3c(-c4ccc(OC(F)F)cc4)cnc23)ccc1C(=O)N1CCN(C(=O)CCN)CC1 [Example 519, 3-amino-1-[4-[4-[[3-[4-(difluoromethoxy)phenyl]imi-dazo[1,2-a]pyrazin-8-yl]amino]-2-methylbenzoyl]piperazin-1-yl]propan-1-one; hydrochloride] — 1.5-fold lower, 410 nM
